In patent US12043600B2, “Microbiocidal compounds” (SYNGENTA CROP PROTECTION AG, priority 2018, dated 2024):
Where two headings read alike, the source gives them in different places.

Columns and labels:
[1] = system: Puccinia recondita f. sp. tritici; experiment: Puccinia recondita f. sp. tritici/Wheat/Leaf Disc Preventative (Brown Rust); format: in vivo; conditions: foliar
[2] = system: Phaeosphaeria nodorum (Septoria nodorum); experiment: Phaeosphaeria nodorum (Septoria nodorum)/Wheat/Leaf Disc Preventative (Glume Blotch); format: in vivo; conditions: Parastagonospora nodorum, foliar, wheat leaf disc preventative, compared to untreated control
How it was run: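 Wheat cv. Kanzler leaf discs on agar were sprayed with formulated compound diluted in water and inoculated with P. nodorum spores 2 days later. Discs kept at 20 °C, 75% rh, 12 h light/dark; percent disease control versus untreated scored 5–7 days after application.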

[3] = system: Mycosphaerella graminicola (Septoria tritici); experiment: Mycosphaerella graminicola (Septoria tritici)/Liquid Culture (Septoria Blotch); format: cell-based; conditions: Zymoseptoria tritici; for inhibition of growth at 20 ppm: liquid culture, compared to untreated control; for inhibition of growth at 6 ppm: M. graminicola (B19), read-out: Disease control (%)
How it was run: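 Conidia from cryogenic storage mixed into potato dextrose broth and added to microtiter wells already holding DMSO solutions of test compound. Activity expressed as percentage disease control.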

Plasmopara viticola = experiment: whole plant or invertebrate; format: in vivo; conditions: foliar, read-out: control of Plasmopara viticola
[4] = system: Glomerella lagenarium (Colletotrichum lagenarium); experiment: Glomerella lagenarium (Colletotrichum lagenarium)/Liquid Culture (Anthracnose); format: cell-based; conditions: Colletotrichum orbiculare, liquid culture, compared to untreated control
[5] = system: Monographella nivalis (Microdochium nivale); experiment: Monographella nivalis (Microdochium nivale)/Liquid Culture (Foot Rot Cereals); format: cell-based; conditions: liquid culture, compared to untreated control
How it was run: (§1)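 Test compound dissolved in DMSO is dispensed first; nutrient broth (potato dextrose) carrying conidia thawed from cryogenic storage follows.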

[6] = system: Puccinia recondita f. sp. tritici; experiment: Puccinia recondita f. sp. tritici/Wheat/Leaf Disc Curative (Brown Rust); format: in vivo; conditions: foliar, wheat leaf disc curative, compared to untreated control
How it was run: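 Curative leaf-disc test on wheat cv. Kanzler segments on agar, spore-inoculated and kept dark at 19° C, 75% rh; formulated compound in water applied 1 day after inoculation. Incubated at 19° C, 75% rh, 12 h light/12 h dark; percent disease control versus untreated scored 6-8 days after application.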

[7] = system: Blumeria graminis f. sp. tritici (Erysiphe graminis f. sp. tritici); experiment: Blumeria graminis f. sp. tritici/Wheat/Leaf Disc Preventative (Powdery Mildew on Wheat); format: in vivo; conditions: foliar, wheat leaf disc preventative, compared to untreated control
How it was run: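 Wheat cv. Kanzler leaf segments on agar sprayed with formulated compound, inoculated with powdery mildew 1 day later and held at 20° C, 60% rh (24 h dark, then 12 h light/12 h dark). Percent disease control versus untreated scored 6-8 days after application.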

Phytophthora infestans = experiment: whole plant or invertebrate; format: in vivo; conditions: in Solanum lycopersicum, foliar, read-out: control of Phytophthora infestans
[8] = system: Botryotinia fuckeliana (Botrytis cinerea); experiment: Botryotinia fuckeliana (Botrytis cinerea)/Liquid Culture (Gray Mould); format: cell-based; conditions: liquid culture, compared to untreated control
Method: Conidia of the fungus from cryogenic storage are directly mixed into nutrient broth (Vogels broth). After placing a (DMSO) solution of test compound into a microtiter plate (96-well format), the nutrient broth containing the fungal spores is added.

[9] = system: Mycosphaerella arachidis (Cercospora arachidicola); experiment: Mycosphaerella arachidis (Cercospora arachidicola)/Liquid Culture (Early Leaf Spot); format: cell-based; conditions: liquid culture, compared to untreated control
How it was run: as §1

Pyrenophora teres = experiment: Pyrenophora teres/Barley/Leaf Disc Preventative (Net Blotch); format: in vivo; conditions: foliar
From the text: Barley leaf segments cv. Hasso are placed on agar in a multiwell plate (24-well format) and sprayed with the formulated test compound diluted in water. The leaf segments are inoculated with a spore suspension of the fungus 2 days after application. […] The data are presented as the percentage of disease control of each compound for the biological tests against G. lagenarium (Example B3), P. recondita preventative (Example B13), P. teres (Example B15) and M. graminicola (Example B19) as described above. The testing rates of each biological test is specifically described in table C1 below.

Phakopsora pachyrhizi = experiment: Phakopsora pachyrhizi/Soybean/Preventative (Soybean Rust); format: in vivo; conditions: foliar, 288 h, 200 ppm, soybean leaf disc preventative, compared to untreated control, read-out: control of Phakopsora pachyrhizi
[10] = system: Magnaporthe grisea (Pyricularia oryzae); experiment: whole plant or invertebrate; format: in vivo; conditions: foliar, read-out: control of Magnaporthe grisea
[11] = wheat leaf disc preventative, compared to untreated control, read-out: control of Puccinia recondita f. sp. tritici
[12] = P. recondita prev (B13), read-out: Disease control (%)
[13] = P. teres (B15), read-out: Disease control (%)
[14] = barley leaf disc preventative, compared to untreated control, read-out: control of Pyrenophora teres

| Structure (SMILES) | pest or weed control at 200 ppm [1, 11] [%] | inhibition of growth at 20 ppm [3] [%] | pest or weed control at 200 ppm (Plasmopara viticola) [%] | inhibition of growth at 20 ppm [5] [%] | melting point [°C] | inhibition of growth at 20 ppm [9] [%] | pest or weed control at 60 ppm [1, 12] [%] | inhibition of growth at 6 ppm [3] [%] | pest or weed control at 200 ppm (Pyrenophora teres; [13]) [%] | pest or weed control at 200 ppm (Pyrenophora teres; [14]) [%] | other results |
| --- | --- | --- | --- | --- | --- | --- | --- | --- | --- | --- | --- |
| CCOc1ccn(-c2ccc(C)c(O/C(=C\OC)C(=O)OC)c2)n1 [Compound E-94, methyl (Z)-2-[5-(3-ethoxypyrazol-1-yl)-2-methyl-phenoxy]-3-methoxy-prop-2-enoate] | ≥ 80 | ≥ 80 | ≥ 80 | ≥ 80 | 94 to 96 | ≥ 80 | – | – | – | – | pest or weed control at 200 ppm [2]: ≥ 80%; inhibition of growth at 20 ppm [4]: ≥ 80%; pest or weed control at 200 ppm [6]: ≥ 80%; pest or weed control at 200 ppm [7]: ≥ 80%; pest or weed control at 200 ppm (Phytophthora infestans): ≥ 80%; inhibition of growth at 20 ppm [8]: ≥ 80% |
| CO/C=C(\Oc1cc(-n2ccc(C(C)C)n2)ccc1C)C(=O)OC [drawing 149] | – | – | – | – | – | – | 100 | 100 | 0 | – | – |
| CO/C=C(\Oc1cc(-n2ccc(C#N)n2)ccc1C)C(=O)OC [Compound E-89, methyl (Z)-2-[5-(3-cyanopyrazol-1-yl)-2-methyl-phenoxy]-3-methoxy-prop-2-enoate] | ≥ 80 | ≥ 80 | ≥ 80 | ≥ 80 | – | – | – | – | – | ≥ 80 | pest or weed control at 200 ppm (Phakopsora pachyrhizi): ≥ 50% |
| CO/C=C(\Oc1cc(-n2ccc(C(F)(F)F)n2)ccc1C)C(=O)OC [drawing 152] | – | – | – | – | – | – | 100 | 100 | 90 | – | – |
| CO/C=C(\Oc1cc(-n2ccc(OC(F)F)n2)ccc1C)C(=O)OC [Compound E-66, methyl (Z)-2-[5-[3-(difluoromethoxy)pyrazol-1-yl]-2-methyl-phenoxy]-3-methoxy-prop-2-enoate] | ≥ 80 | ≥ 80 | ≥ 80 | ≥ 80 | 123 to 126 | ≥ 80 | – | – | – | – | pest or weed control at 200 ppm [2]: ≥ 80%; inhibition of growth at 20 ppm [4]: ≥ 80%; pest or weed control at 200 ppm [6]: ≥ 80%; pest or weed control at 200 ppm [7]: ≥ 80%; inhibition of growth at 20 ppm [8]: ≥ 80% |
| CCc1ccc(-n2ccc(C(F)(F)F)n2)cc1O/C(=C\OC)C(=O)OC [Compound E-109, methyl (Z)-2-[2-ethyl-5-[3-(trifluoromethyl)pyrazol-1-yl]phenoxy]-3-methoxy-prop-2-enoate] | ≥ 80 | ≥ 80 | ≥ 80 | ≥ 80 | 135 to 137 | ≥ 80 | – | – | – | ≥ 80 | pest or weed control at 200 ppm [7]: ≥ 80% |
| CO/C=C(\Oc1cccc(-n2ccc(C(F)(F)F)n2)c1)C(=O)OC [drawing 153] | – | – | – | – | – | – | – | 70 | 50 | – | pest or weed control at 200 ppm [1, 12]: 90% |
| CO/C=C(\Oc1cccc(-n2ncc(C3CC3)n2)c1)C(=O)OC [drawing 146] | – | – | – | – | – | – | 100 | 90 | 0 | – | – |
| CO/C=C(\Oc1cc(-n2ncc(C3CC3)n2)ccc1C)C(=O)OC [drawing 147] | – | – | – | – | – | – | 100 | 100 | – | – | pest or weed control at 20 ppm (Pyrenophora teres; P. teres (B15), 20 ppm, read-out: Disease control (%)): 50% |
| CO/C=C(\Oc1cc(-n2ccc(C(F)(F)F)n2)ccc1C1CC1)C(=O)OC [Compound E-108, methyl (Z)-2-[2-cyclopropyl-5-[3-(trifluoromethyl)pyrazol-1-yl]phenoxy]-3-methoxy-prop-2-enoate] | ≥ 80 | ≥ 80 | – | ≥ 80 | 130 to 132 | ≥ 80 | – | – | – | ≥ 80 | pest or weed control at 200 ppm [7]: ≥ 80% |
| CO/C=C(\Oc1cc(-n2ccc(OC(C)C)n2)ccc1C)C(=O)OC [drawing 150] | – | – | – | – | – | – | 100 | 100 | 90 | – | – |
| CO/C=C(\Oc1cccc(-n2cccc2)c1)C(=O)OC [drawing 154, reference compound] | – | – | – | – | – | – | – | 20 | 0 | – | pest or weed control at 200 ppm [1, 12]: 0% |
| CO/C=C(\Oc1cc(-n2cc(Cl)c(OC(C)C)n2)ccc1C)C(=O)OC [Compound E-12, methyl (Z)-2-[5-(4-chloro-3-isopropoxy-pyrazol-1-yl)-2-methyl-phenoxy]-3-methoxy-prop-2-enoate] | ≥ 80 | ≥ 80 | ≥ 80 | ≥ 80 | 104 to 107 | ≥ 80 | – | – | – | ≥ 80 | pest or weed control at 200 ppm [10]: ≥ 80%; inhibition of growth at 20 ppm [4]: ≥ 80%; pest or weed control at 200 ppm (Phytophthora infestans): ≥ 80% |
| CO/C=C(\Oc1cc(-n2ccc(C(F)(F)F)n2)c(F)cc1C)C(=O)OC [drawing 148] | – | – | – | – | – | – | 100 | 100 | 90 | – | – |
| CC#Cc1ccn(-c2ccc(C)c(O/C(=C\OC)C(=O)OC)c2)n1 [Compound E-2, methyl (Z)-3-methoxy-2-[2-methyl-5-(3-prop-1-ynylpyrazol-1-yl)phenoxy]prop-2-enoate] | ≥ 80 | ≥ 80 | ≥ 80 | ≥ 80 | 175 to 179 | ≥ 80 | – | – | – | ≥ 80 | pest or weed control at 200 ppm [2]: ≥ 80%; pest or weed control at 200 ppm [10]: ≥ 80%; pest or weed control at 200 ppm (Phakopsora pachyrhizi): ≥ 50% |
